Experiments:
[1] = test system: primary bone marrow cells (BMC); assay: Primary bone marrow cell culture, cytochemical colony (CFU-f) staining; type: cell-based, rat; conditions: 10^-7 M on day 0, 18-day primary BMC cultures, compared with control cultures; triplicate determinations, three experiments
Protocol: Tibiae and femurs of 200-g male Wistar rats were removed under aseptic conditions, and bone marrow cells (BMC) were flushed out with Dulbecco's modified Eagle's minimal essential medium containing 10% fetal calf serum, 50 µg/ml ascorbic acid, 10 mM β-glycerophosphate, and 10^−8 M dexamethasone. Cells were dispersed by repeated pipetting, and a single-cell suspension was achieved by forcefully expelling the cells through a 22-gauge syringe needle. 10^6 total bone marrow cells were cultured in 36-cm^2 Petri dishes in 5 ml of the above-mentioned medium. All the dishes were assigned to three different groups. Each of the group treated with vehicle (Control), 10^−7 M hPTHrP1-34 or 10^−7 M hPTHrP1-84. The medium was changed every 4 days. The non-adherent cells containing hematopoietic elements were removed by pipetting gently when the medium was changed for the first time. Only monocytic cells remained. Cultures were maintained for 12–18 days. At the end of the culture period cells were stained cytochemically or RNA was extracted from these cells for RT-PCR as described below. The cells from 18-day primary BMC cultures were washed with PBS and fixed by the addition of cold ethanol. […] The numbers of colonies were counted macroscopically by hand. […]

[2] = Serum PTHrP analyses (ELISA) after subcutaneous injection; type: in vivo, mouse; conditions: OVX mice, 10 nmol/kg s.c.
Protocol: The OVX mice were injected with vehicle or 10 nmol/kg hPTHrP1-34 or 10 nmol/kg hPTHrP1-84 subcutaneously. Subsequently, blood samples were drawn at 15 and 30 minutes, 1, 2, 4 and 6 hours after the injections. Serum concentrations of hPTHrP1-34 or hPTHrP1-84 were measured by enzyme linked immunosorbent assay (ELISA) that used Phoenix Pharmaceuticals PTHrP(1-34)- EIA Kit (Phoenix Pharmaceuticals, USA). Procedures were performed according to the instructions of the kit.

[3] = test system: OVX mice (osteoporosis model); assay: Osteoblastic bone formation parameters of vertebrae in OVX mice; type: in vivo, mouse; conditions: 10 nmol/kg s.c. daily for 4 weeks, compared to vehicle-treated sham-operated mice, n = 6
Protocol: (§1) Twenty four female C57BL/6J mice, 8 weeks age, were assigned to four different groups, with six mice per group. All mice were anesthetized with chloral hydrate (0.4 ml/100 g body weight) and subjected to surgery on day 0. Sham surgery was performed on the Sham group (Sham) by identifying the bilateral ovaries and ovariectomy (OVX) was performed on the other groups by removing the bilateral ovaries. After surgery, all mice were maintained in a virus- and parasite-free barrier facility and exposed to a 12-h/12-h light/dark cycle under standard conditions in the Medical Experimental Animal Center of Nanjing Medical University for 9 weeks. HPTHrP1–34 was subcutaneously administered at a dose of 10 nmol/kg (40 µg/kg) body weight everyday for the last 4 weeks. HPTHrP1–84 was subcutaneously administered at a dose of 10 nmol/kg (100 µg/kg) body weight everyday for the last 4 weeks. Each of the mice received vehicle (vehicle-treated sham-operated mice and vehicle-treated OVX mice), hPTHrP1-34 (hPTHrP1-34-treated OVX mice) or hPTHrP1-84 (hPTHrP1-84-treated OVX mice). At the end of experiments, all mice were sacrificed by exsanguination under chloral hydrate anesthesia and blood were collected for serum calcium, phosphorus and ALP analyses, bones and kidneys were then removed for the analyses described below.
Lumbar vertebrae or tibiae were removed and fixed in PLP fixative (2% paraformaldehyde containing 0.075 M lysine and 0.01 M sodium periodate solution) overnight at 4°C and processed histologically as described. Lumbar vertebrae were decalcified in ethylene-diamine tetraacetic acid (EDTA) glycerol solution for 5–7 days at 4°C. Decalcified samples were dehydrated and embedded in paraffin after which 5 µm sections were cut on a rotary microtome. […]
Double calcein labeling was performed by intraperitoneal injection of mice with 10 µg calcein/g body weight (C-0875, Sigma-Aldrich Corp., St. Louis, MO) at 10 and 3 day before death. […] Serial sections were cut, and the freshly cut surface of each section was viewed and imaged using fluorescence microscopy. The double calcein-labeled width of bone was measured using Northern Eclipse image analysis software version 6.0 (Empix Imaging, Inc., Mississauga, Canada), and the mineral apposition rate (MAR) was calculated as the interlabel width/labeling period.
(§2) After HE staining or histochemical staining of sections from six mice of each genotype, images of fields were photographed with a Sony digital camera. All images were digitally recorded using a rectangular template, and recordings were processed and analyzed using Northern Eclipse image analysis software as described, [26], [28].

[4] = test system: OVX mice (osteoporosis model); assay: Osteoclastic bone resorption (TRAP staining) in OVX mice; type: in vivo, mouse; conditions: 10 nmol/kg s.c. daily for 4 weeks, vertebrae, compared with vehicle-treated OVX mice, n = 6
Protocol: as §1, with “At the end of experiments, all mice were sacrificed by exsanguination under chloral hydrate anesthesia and blood were collected for serum calcium, phosphorus and ALP analyses, bones and kidneys were then removed for the analyses described below.” left out
as §2

[5] = test system: Cbfa-1, ALP, Col I, OCN mRNA in primary BMC; assay: Real-time RT-PCR of osteogenic genes in 14-day primary BMC cultures; type: cell-based, rat; conditions: 10^-7 M, ratio to GAPDH, compared with control cultures, three trials
Protocol: Tibiae and femurs of 200-g male Wistar rats were removed under aseptic conditions, and bone marrow cells (BMC) were flushed out with Dulbecco's modified Eagle's minimal essential medium containing 10% fetal calf serum, 50 µg/ml ascorbic acid, 10 mM β-glycerophosphate, and 10^−8 M dexamethasone. Cells were dispersed by repeated pipetting, and a single-cell suspension was achieved by forcefully expelling the cells through a 22-gauge syringe needle. 10^6 total bone marrow cells were cultured in 36-cm^2 Petri dishes in 5 ml of the above-mentioned medium. All the dishes were assigned to three different groups. Each of the group treated with vehicle (Control), 10^−7 M hPTHrP1-34 or 10^−7 M hPTHrP1-84. The medium was changed every 4 days. The non-adherent cells containing hematopoietic elements were removed by pipetting gently when the medium was changed for the first time. Only monocytic cells remained. Cultures were maintained for 12–18 days. At the end of the culture period cells were stained cytochemically or RNA was extracted from these cells for RT-PCR as described below.
RNA was isolated from 14-day cultured cells using Trizol reagent (Invitrogen) according to the manufacturer's protocol. Femurs were isolated and weighted. Homogenize tissue samples in 1 ml of TRIzol reagent per 50–100 mg of tissue using mortar and pestle with liquid nitrogen. […]

[6] = test system: renal calcium transporters (calbindin-D28K, calbindin-D9K, NCX1, TRPV5); assay: Western blot of renal calcium transporters in OVX mice; type: in vivo, mouse; conditions: 10 nmol/kg s.c. daily for 4 weeks, relative to vehicle-treated sham-operated mice, n = 6
Protocol: as §1, with “At the end of experiments, all mice were sacrificed by exsanguination under chloral hydrate anesthesia and blood were collected for serum calcium, phosphorus and ALP analyses, bones and kidneys were then removed for the analyses described below.” left out
Purified hPTHrP1-34 and 1-84 and proteins extracted from kidney were quantitated by a kit (Bio-Rad, Mississauga, Ontario, Canada). […] Bands were visualized using ECL chemiluminescence (Amersham) and quantitated by Scion Image Beta 4.02 (Scion Corporation, NIH).

[7] = test system: OVX mice (osteoporosis model); assay: Bone volume of vertebrae in OVX mice (radiography, micro-CT, histology); type: in vivo, mouse; conditions: 10 nmol/kg s.c. daily for 4 weeks
Protocol: as §1
Thoracic vertebrae were removed and dissected free of soft tissue. […]
Thoracic vertebrae were fixed overnight in 70% ethanol and analyzed by micro-CT with a SkyScan 1072 scanner and associated analysis software (SkyScan, Antwerp, Belgium) as described. […]
Total collagen was detected in paraffin sections using a modified method of Lopez-De Leon and Rojkind. […]
as §2

[8] = test system: Cbfa1, ALP, Col I, OCN, RANKL, OPG mRNA in long bone; assay: Real-time RT-PCR of long bone extracts of OVX mice; type: in vivo, mouse; conditions: 10 nmol/kg s.c. daily for 4 weeks, n = 6
Protocol: as §1
RNA was isolated from 14-day cultured cells using Trizol reagent (Invitrogen) according to the manufacturer's protocol. Femurs were isolated and weighted. Homogenize tissue samples in 1 ml of TRIzol reagent per 50–100 mg of tissue using mortar and pestle with liquid nitrogen. After homogenization, remove insoluble material from the homogenate by centrifuging at 12,000 RPM for 10 min at 4°C. Transfer the top layer solution into a new tube. RNA of this solution was precipitated with isopropanol, washed with 75% ethanol and dissolved with DEPC water. Reverse transcription reactions were performed using the SuperScript First-Strand Synthesis System (Invitrogen) as previously described. […]

[9] = Serum calcium, phosphorus and ALP in OVX mice; type: in vivo, mouse; conditions: 10 nmol/kg s.c. daily for 4 weeks, versus vehicle-treated OVX mice, n = 6
Protocol: as §1, with “At the end of experiments, all mice were sacrificed by exsanguination under chloral hydrate anesthesia and blood were collected for serum calcium, phosphorus and ALP analyses, bones and kidneys were then removed for the analyses described below.” left out
Serum calcium, phosphorus and ALP were determined at 4 weeks after the administration of drugs by autoanalyzer (Beckman Synchron 67; Beckman Instruments).

[10] = test system: placental calcium transport; conditions: cited from earlier work
Description: It supports the concept that the mid-molecule region of PTHrP is functionally important in placental calcium transport. […] However, it is unclear whether there are some differences between PTHrP1-34 and 1-84 on renal calcium reabsorption and on bone formation. To answer this que ...

[11] = vertebrae, micro-CT and histology, compared to vehicle-treated OVX mice (hPTHrP1-84 also to hPTHrP1-34-treated), n = 6
[12] = compared to vehicle-treated sham-operated mice

| Substance | colony formation and osteogenic cell differentiation and mineralization [1] | circulating t1/2 ([2]; ELISA, read from the figure (Fig. 6e), approximate) | time at which plasma PTHrP levels declined to baseline levels ([2]; ELISA, sampling 15 and 30 min, 1, 2, 4, 6 h, n = 6) [h] | plasma PTHrP levels at 15 min after the administration ([2]; single injection, PTHrP(1-34) EIA kit (ELISA), mean ± SEM, n = 6) [pM] | ALP positive area [3] | MAR (mineral apposition rate) [3] | osteoblast number [3] | osteoid volume [3] | TRAP positive osteoclast number [4] | TRAP positive osteoclast surface [4] | gene expression levels of Cbfa-1, ALP, type I collagen (Col I) and osteocalcin (OCN) [5] | protein levels of calbindin-D28K, calbindin-D9K, NCX1 and TRPV5 in the kidney [6] | radiolucency in vertebrae ([7]; radiography, compared to vehicle-treated sham-operated mice) | cortical thickness [7, 11] | trabecular bone volume [7, 11] | ratios of RANKL/OPG mRNA levels ([8]; among vehicle-treated, hPTHrP1-34-treated and hPTHrP 1-84-treated OVX mice) | osteoblastic gene expression levels of Cbfa1, ALP [8, 12] | ratios of RANKL/OPG mRNA levels [8, 12] | Serum mineral ion and ALP levels [9] | placental calcium transfer [10] |
| --- | --- | --- | --- | --- | --- | --- | --- | --- | --- | --- | --- | --- | --- | --- | --- | --- | --- | --- | --- | --- |
| hPTHrP1-34: recombinant human parathyroid hormone related protein 1-34, expressed as GST fusion in E. coli BL21 and cleaved by thrombin | significant increase | approximately 45 mins | 2 | 9 ± 0.7 | increased | decreased | increased | not altered significantly | did not further increase | did not further increase | upregulated significantly | down-regulated | increased | not altered significantly | not altered significantly | no significant differences | slightly up-regulated | increased significantly | no significant differences |  |
| synthetic PTHrP1-34: synthetic PTHrP1-34 of the literature study on placental calcium transfer (ref 18) |  |  |  |  |  |  |  |  |  |  |  |  |  |  |  |  |  |  |  | no such effect |
